According to patent US20060204502A1 (priority 2004, published 2006):
Where “and” joins values, the source holds several entries; their conditions need not be identical. Equal entries are not always repeated. Where two headings read alike, the source gives them in different places.

Assays:
[1] = system: Human Colon Carcinoma HT29; experiment: MTT growth inhibitory assay, HT29; format: cell-based; conditions: HT29 cells, A3 antagonist at 1 μg/ml
Description: (§1) Interpretation of the EF is dependent upon the concentrations of A3 receptor antagonist tested. For example, when using very low concentrations of A3 receptor antagonist, any EF above 1.0 is synergistic if the A3 receptor antagonist concentration is below the threshold of cell growth inhibition.
(§2) The cells are sub-cultured twice a week.
(§3) Vinblastine sulfate salt was obtained from Sigma Chemical Co., (V1377). Irinotecan was diluted with culture medium. All other agents were dissolved in 100% DMSO at appropriate concentrations. The DMSO stock solutions were diluted 100-fold with growth medium so that the final DMSO concentration was 1%.

[2] = system: Human Pancreatic Cancer Panc-1; experiment: MTT growth inhibitory assay, Panc-1; format: cell-based; conditions: Panc-1 cells, A3 antagonist at 1 μg/ml
Description: as §1, §2, §3

[3] = system: Human Lung Carcinoma SKMES; experiment: MTT growth inhibitory assay, SKMES; format: cell-based; conditions: SKMES cells, A3 antagonist at 1 μg/ml
Description: as §1, §2, §3

A375 cells [4] = experiment: Colony formation assay of A375 cells; format: cell-based, human; conditions: 10 μM combined with paclitaxel (0.75 μg/ml), 7 days
Description: FIG. 2 illustrates colony formation assay of A375 cells. Cells were treated with different drugs and colonies were counted after 7 days. The values represent the mean±SEM of four independent experiments. […] Analysis was by ANOVA followed by Dunnett's test.
Control plates received the same volume of DMSO alone. After 7 days of growth at 37° C. in humidified atmosphere containing 5% CO2, the cells were fixed with absolute methanol for 5′ and stained with 1/10 Giemsa/phosphate-buffered saline (PBS) staining solution for 10 minutes. Staining solution was removed and colonies of greater than 30 cells were scored as survivors. For each treatment, six individual wells were scored.

A375 cells [5] = experiment: Flow cytometry cell cycle (G2/M) and apoptosis (sub-G1) analysis, A375; format: cell-based, human; conditions: Homo sapiens, A-375, read-out: SEC50
Description: Flow Cytometry Analysis: A375 and NCTC2544 adherent cells were trypsinized, mixed with floating cells, washed with PBS and permeabilised in 70% (vol/vol) ethanol/PBS solution at 4° C. for at least 24 hours. Jurkat, HeL023 and PBMC cells were centrifuged for 10 minutes at 1000×g. The cell pellet was then resuspended and permeabllised in 70% (vol/vol) ethanol/PBS solution at 4° C. for at least 24 hours. The cells were washed with PBS and the DNA was stained with a PBS solution, containing 20 μg/ml of propidium iodide and 100 μg/ml of RNAse, at room temperature for 30 minutes. Cells were analysed by FACScan (Becton-Dickinson) and the content of DNA was evaluated by the Cell-LISYS program (Becton-Dickinson). Cell distribution among cell cycle phases and apoptotic cells was evaluated as previously described (Secchiero et al., 2001). Briefly, the cell cycle distribution is shown as the percentage of cells containing 2n (G1 phase), 4n (G2 and M phases), 4n>x>2n. DNA amount (S phase) judged by propidium iodide staining. The apoptotic population is the percentage of cells with DNA content lower than 2n.
After 24 hours, cells were collected for flow cytometry analysis. PD 98059 was used at 20 uM as an inhibitor of MEK to prevent MEK-1 activation. […]
EC50 values were obtained by analysing G2/M accumulation dose response curve. ECMAX values were obtained by analysing sub-G1 accumulation dose response curve. Paclitaxel values have units of ng/ml.

P-gp = P-gp (Homo sapiens, UniProt P08183); format: cell-based; conditions: 10 μM; for P-gp mediated Rh123 efflux (FRES vs FMAX): 3 hours efflux
Description: Rhodamine 123 Efflux Assay: 5×10^5 cells from each subline were loaded with 50 ng/ml of rhodamine 123 for 30 minutes at 37 C in medium. The cells were washed and resuspended in dye-staining agent free medium for 3 hours at 37 C. to allow rhodamine 123 efflux. The cells were then washed twice and the fluorescence of intracellular rhodamine 123 were analysed with Flow cytometer (residual fluorescence FRES). The fluorescence was compared with loaded cells maintained at 4 C. to prevent drug export (maximal fluorescence FMAX). […] Cells from each subline that were not being exposed to rhodamine 123 were used as negative controls.
Rhodamine 123 (Rh123) retention, a P-gp functional assay, was studied in all cell lines. This assay was performed by incubating cells with Rh123 and determining Rh123 accumulation by measuring its fluorescence. The maximum load of Rh123 (FMAX) was quantified at the end of treatment harvesting the cells and storing them at 4° C. to prevent any active Rh123 efflux. The P-gp drug efflux was allowed incubating Rh123-loaded cells in fresh new medium Rh123-free for 3 hours at 37° C. After this incubation, residual fluorescence (FRES) was measured and compared to FMAX.

Human Melanoma A375 = experiment: MTT growth inhibitory assay, A375; conditions: A375 cells
Description: An exemplary assay may comprise the following steps: Cells (1000-1500 cells/well) are seeded in a 96-well micro culture plate in a total volume of 100 μl/well. After overnight incubation in a humidified incubator at 37° C. with 5% CO2-95% air, chemotherapeutic drug solutions diluted with culture medium at various concentrations are added in the amount of 100 μl to each well. The plates are placed in a humidified incubator at 37° C. with 5% CO2-95% air for 7-10 days. The plates are then centrifuged briefly and 100 μl of the growth medium is removed. Cell cultures are incubated with 50 μl of MTT [3-(4,5-dimethylthiazol-2-yl)-2,5-diphenyl-tetrazolium bromide] reagent (1 mg/ml in Dulbecco's phosphate-buffered saline) for 4 hr at 37° C. The resultant purple formazan precipitate is solubilized with 200 μl of 0.04 N HCl in isopropanol. Absorbance is measured at a wavelength of 595 nm and at a reference wavelength of 655 nm using a Bio-Rad Model 3550 Microplate Reader. Preferably, all tests are run in duplicate for each dose level. […] The EZED50 computer program estimates the concentration of agent that inhibits cell growth by 50% as compared to the control cells. This is termed the IC50 and is determined by curve fitting test data using the following four logistic equation. [formula]
If testing concentrations are properly selected (i.e., no or little growth inhibition at low concentrations and complete inhibition at high concentrations), EZED50 program fits the data extremely well and estimates the IC50 value accurately. […] In these instances, the data could be re-analyzed by fixing the Amax value.
In this case, the IC50 could be estimated more accurately if both the Amax and Amin values are fixed. Although it may be feasible to estimate IC50 value by fixing Amax and/or Amax and Amin without repeating the experiment, the best way to determine the IC50 accurately is to decrease or increase the concentrations of the test agent and repeat the test.
Inhibitory assay testing is also used to determine enhanced therapeutic effects from combining A3 receptor antagonists with other tumor inhibiting agents. The inhibitory cell growth assays are run with and without selected concentrations of A3 receptor antagonists. An enhanced therapeutic effect is present when the IC50 of the tumor inhibiting agent is lower with the A3 receptor antagonist.
Quantitatively, the enhancement factor (EF) is calculated by dividing the IC50 value of the tumor inhibiting agent for a tumor cell line by the IC50 value of the agent with A3 receptor antagonist for the same cell line: [formula]
The cells are cultured in a T25 Falcon Tissue Culture flask in a humidified incubator at 37° C. with 5% CO2-95% air. The cells are sub-cultured twice a week.

Chain of P-gp (P08183 whole entry): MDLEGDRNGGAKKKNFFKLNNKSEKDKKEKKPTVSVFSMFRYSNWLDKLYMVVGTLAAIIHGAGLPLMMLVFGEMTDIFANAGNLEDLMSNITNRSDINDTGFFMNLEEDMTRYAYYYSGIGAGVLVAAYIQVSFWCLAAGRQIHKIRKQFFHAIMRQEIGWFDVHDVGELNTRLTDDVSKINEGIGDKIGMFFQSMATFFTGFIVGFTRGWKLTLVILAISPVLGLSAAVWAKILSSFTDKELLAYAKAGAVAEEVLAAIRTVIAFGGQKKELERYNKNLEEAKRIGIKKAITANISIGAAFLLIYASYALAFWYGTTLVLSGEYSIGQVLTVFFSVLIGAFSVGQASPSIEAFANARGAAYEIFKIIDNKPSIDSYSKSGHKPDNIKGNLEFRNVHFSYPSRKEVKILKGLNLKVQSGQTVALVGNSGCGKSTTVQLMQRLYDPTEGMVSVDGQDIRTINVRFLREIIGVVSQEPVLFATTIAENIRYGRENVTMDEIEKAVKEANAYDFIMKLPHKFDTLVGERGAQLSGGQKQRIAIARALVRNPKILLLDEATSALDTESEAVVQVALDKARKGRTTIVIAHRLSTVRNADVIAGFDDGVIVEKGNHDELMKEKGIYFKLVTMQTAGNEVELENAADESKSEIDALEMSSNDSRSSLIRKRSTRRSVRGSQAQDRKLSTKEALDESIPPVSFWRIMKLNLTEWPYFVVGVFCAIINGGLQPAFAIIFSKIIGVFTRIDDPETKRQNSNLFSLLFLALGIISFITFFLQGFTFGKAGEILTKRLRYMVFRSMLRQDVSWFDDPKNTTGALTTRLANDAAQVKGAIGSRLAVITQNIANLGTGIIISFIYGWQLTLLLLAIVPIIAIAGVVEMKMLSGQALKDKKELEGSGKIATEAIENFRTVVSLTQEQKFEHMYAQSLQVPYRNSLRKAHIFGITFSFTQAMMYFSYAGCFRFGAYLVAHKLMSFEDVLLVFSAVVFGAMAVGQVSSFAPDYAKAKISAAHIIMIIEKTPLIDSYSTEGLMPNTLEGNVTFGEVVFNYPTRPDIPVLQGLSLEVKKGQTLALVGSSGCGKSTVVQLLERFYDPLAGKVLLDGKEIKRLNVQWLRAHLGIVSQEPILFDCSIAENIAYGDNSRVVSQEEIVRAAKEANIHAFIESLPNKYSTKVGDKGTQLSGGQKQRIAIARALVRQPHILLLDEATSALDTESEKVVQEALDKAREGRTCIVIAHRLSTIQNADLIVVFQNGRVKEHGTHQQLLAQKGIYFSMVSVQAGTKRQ

For `CCCn1cc2c(nc(NC(=O)Nc3ccc(OC)cc3)n3nc(-c4ccco4)nc23)n1` [MRE3008F20, 5-[[(4-Methoxyphenyl)amino]carbonyl]amino-8-propyl-2-(2-furyl)-pyrazolo[4,3-e]1,2,4-triazolo[1,5-c]pyrimidine], the “Enhancement Factor” value ([1]; enhancement of docetaxel IC50) was 15.0, the “Enhancement Factor” value ([1]; enhancement of doxorubicin IC50) was 1.6 and the “Enhancement Factor” value ([1]; enhancement of irinotecan IC50) was 1.8. The “Enhancement Factor” value ([1]; enhancement of paclitaxel IC50) was 2.9, the “Enhancement Factor” value ([2]; enhancement of docetaxel IC50) was 1.8 and the “Enhancement Factor” value ([2]; enhancement of paclitaxel IC50) was 1.9. The “Enhancement Factor” value ([3]; enhancement of docetaxel IC50) was 3.6, the “Enhancement Factor” value ([3]; enhancement of irinotecan HCL IC50) was 2.1 and the “Enhancement Factor” value ([3]; enhancement of paclitaxel IC50) was 4.1. For the same molecule, the “Enhancement Factor” value ([3]; enhancement of vinblastine IC50) was 1.2, the “colony formation, % of DMSO control” value (A375 cells [4]) was 0.2% and the EC50 (A375 cells [5]) was 550 ± 60 nM. The “P-gp mediated Rh123 efflux (FRES vs FMAX)” value (P-gp; A375 cells) was “completely blockade of P-gp mediated Rh123 transport”, the “% of Rh123 Negative Cells (cells expressing P-gp activity)” value (P-gp; HeL023 cells) was 0.5 ± 0.3% and the “P-gp mediated Rh123 efflux (FRES vs FMAX)” value (P-gp; HeL023 cells) was “near total P-gp inhibition”. The “Enhancement Factor” value (Human Melanoma A375; enhancement of docetaxel IC50, A3 antagonist at 3 μg/ml) was 6.9, the “Enhancement Factor” value (Human Melanoma A375; enhancement of docetaxel IC50, A3 antagonist at 10 μg/ml) was 5.3 and the “Enhancement Factor” value (Human Melanoma A375; enhancement of paclitaxel IC50, A3 antagonist at 1 μg/ml) was 7.1. For the same molecule, the “Enhancement Factor” value (Human Melanoma A375; enhancement of paclitaxel IC50, A3 antagonist at 3 μg/ml) was 6.4, the “Enhancement Factor” value (Human Melanoma A375; enhancement of paclitaxel IC50, A3 antagonist at 10 μg/ml) was 7.1 and 8.5 and the Enhancement Factor (Human Melanoma A375; enhancement of paclitaxel, at all three concentrations (1, 3, and 10 μg/ml)) was 6.4-7.1.
